Legend:
[1] = One-photon absorption and emission spectra in multilamellar lipid vesicles, water and ethanol; type: physicochemical; conditions: for 1PF Abs. Max / 1PF Em. Max: one photon, soybean multi-lamellar lipid vesicles
From the text: […] The column indicating relative signal change for one-photon fluorescence also lists the excitation light source used and the lower bounds of the long-pass emission detected.
Absorption and emission spectra were obtained for a series of dyes with different acceptors: pyridinium (PY-1261), quinolinium (PY-212), and acridinium (PY-2240).

[2] = system: layer V pyramidal neurons; test: Voltage-sensitive dye imaging of action potentials in intracellularly stained pyramidal neurons in brain slices; type: cell-based, Sprague Dawley rats; conditions: for dF/F at 658 nm: backpropagating AP, basal dendrites 80-150 μm from soma, %; for dF/F at 658 nm / S/N ratio at 658 nm: laser spot 658 nm
From the text: Sprague Dawley rats (P21-42) were anesthetized with isoflurane, decapitated, and the brains were removed with the head immersed in ice-cold, artificial cerebrospinal fluid (ACSF), according to an animal protocol approved by the Center for Laboratory Animal Care, University of Connecticut. Brain slices (300 μm) were cut from frontal lobes in the coronal plane. ACSF contained (in mM) 125 NaCl, 26 NaHCO3, 10 glucose, 2.3 KCl, 1.26 KH2PO4, 2 CaCl2 and 1 MgSO4, pH 7.4. Whole-cell recordings were made from visually identified layer V pyramidal neurons on the medial part of the slice. Intracellular solution contained (in mM) 135 K-gluconate, 2 MgCl2, 3 Na2-ATP, 10 Na2-phosphocreatine, 0.3 Na2-GTP and 10 Hepes (pH 7.3, adjusted with KOH). Electrical signals were amplified with Multiclamp 700A and digitized with two input boards: (1) Digidata Series 1322A (Axon Instruments) at 5 kHz, and (2) Neuroplex (RedShirtImaging) at 2.7 kHz sampling rate. Only cells with a membrane potential more hyperpolarized than −50 mV, and action potential amplitudes exceeding 80 mV (measured from the base line) were included in this study. All experiments were performed on layer 5 cortical pyramidal cells at 34° C.
Blue dyes were stored in ethanol stock solution at −20° C. On the day of the recording blue dyes were dissolved in standard K-gluconate based intracellular solution. A loading pipette was filled with two varieties of the same intracellular solution; one with and one without dye. Dye-free solution was occupying the very tip of the pipette, while the back of the pipette lumen was microloaded with dye-rich solution. The purpose of dye-free solution in the tip of the patch pipette was to prevent dye-leak during the maneuver through brain slice tissue. VSD styryl dyes are lipophilic and bind indiscriminately and irreversibly to all membranes around the neuron of interest. Even a small amount of dye that leaks out of the pipette during the formation of the gigaohm seal, can generate strong fluorescent background. Fluorescent light emanating from surrounding tissue has a devastating effect on dendritic optical signals. Elimination of the background fluorescence is critical for dendritic voltage imaging. How much dye-free solution one should put in the tip depends on time period between the submersion of the patch pipette into the recording chamber and formation of the gigaohm seal. The faster one can perform this maneuver the less dye-free solution she needs to achieve optimal staining.
Blue VSD were injected at room temperature for 25-60 minutes. The filling pipette was carefully pulled out (outside-out patch) and brain slices were left to incubate for 20-120 minutes at room temperature. Just before optical recordings the cells were re-patched with dye-free pipette at the physiological temperature (34° C.).
Voltage-sensitive dye imaging was performed on a Zeiss Axioskope 2FS microscope equipped with NeuroCCD camera (RedShirtImaging). We used Zeiss 40× objective IR-Achroplan 0.80 W. The size of the square visual field captured by NeuroCCD camera was 384×384 um. In the place of the arc lamp (normally used for epi-illumination), we inserted a 200 μm fiber optic guide with a collimator. Laser beam was focused on the other side of the fiber optic guide using a microscope objective-like lens. This arrangement produced a motionless spot of laser light (˜25 μm in diameter) at the object plane. An illuminated section of the brain slice, projected onto the NeuroCCD camera, covered approximately 25 pixels when used with 40× objective lens. At this magnification, one pixel sampled a 4.8×4.8 square in the object plane. A region of interest (ROI) was brought into the laser spot using X-Y microscope platform. The laser beam was interrupted by an electro-programmable shutter (Uniblitz®). Attention was made to limit the exposure time during the recording and positioning of the neuron.

[3] = One-photon fluorescence relative signal change per 100 mV; conditions: excitation / long-pass emission (nm) given
From the text: The left-most data columns of Table 1 are the absorption and emission maxima for one photon fluorescence in soybean multi-lamellar lipid vesicles used to mimic the membrane environment. The column indicating relative signal change for one-photon fluorescence also lists the excitation light source used and the lower bounds of the long-pass emission detected.

[4] = system: NIE-115 mouse neuroblastoma; test: Time-dependence (kinetics) of SHG and 2PF signal change after voltage-clamp step; type: cell-based
From the text: For full details of our non-linear imaging microscope, we refer the reader to previously published descriptions. A. C. Millard, P. J. Campagnola, W. Mohler, A. Lewis, and L. M. Loew, “Second Harmonic Imaging Microscopy,” Meth. Enzymol. 361, 47-69 (2003); Millard, A. C., L. Jin, and L. M. Loew, “Second Harmonic Generation Imaging Microscopy with a High Power Ultrafast Fiber Laser,”Commercial and Biomedical Applications of Ultrafast Lasers. 5714-5716, 92-98 (2005); A. C. Millard, L. Jin, M.-D. Wei, J. P. Wuskell, A. Lewis, and L. M. Loew, “Sensitivity of Second Harmonic Generation from Styryl Dyes to Transmembrane Potential,” Biophys. J. 86, 1169-1176 (2004). Our current microscope combines a Fluoview (Olympus) scan-head and an Axiovert (Zeiss) inverted microscope constructed for multiple imaging methodologies including wide-field, one-photon excitation fluorescence imaging, as well as SHG and 2PF imaging. Our laser sources include a Mira (Coherent) Ti:sapphire laser and a Femtopower (Fianium) fiber laser operating at 1064 nm. Millard, A. C., L. Jin, and L. M. Loew, “Second Harmonic Generation Imaging Microscopy with a High Power Ultrafast Fiber Laser,”Commercial and Biomedical Applications of Ultrafast Lasers. 5714-5716, 92-98 (2005). For excitation, we routinely use an IR-Achroplan (Zeiss) 40×, 0.8 NA water-immersion objective though for shorter wavelengths we also use an A-Plan (Zeiss) 40×, 0.65 NA air objective. Fluorescence is imaged (for linear imaging) or collected (for non-linear imaging) back through the excitation objective, while SHG is collected in the forward, transmitted light direction by a condenser, either 0.8 NA or 0.55 NA (Zeiss). For optimal collection, the numerical aperture of the condenser should be at least 1/√2 of the numerical aperture of the excitation objective (L. Moreaux, O. Sandre, S. Charpak, M. Blanchard-Desce, and J. Mertz, “Coherent Scattering in Multi-Harmonic Light Microscopy,” Biophys. J. 80, 1568-1574 (2001); L. Moreaux, O. Sandre, and J. Mertz. “Membrane Imaging by Second Harmonic Generation Microscopy,” J. Opt. Soc. Am. B. 17, 1685-1694 (2000)), though in practice a condenser of slightly lower numerical aperture will often suffice. Since the wavelength of second harmonic light is precisely half that of the excitation light, the choice of filter for SHG imaging is greatly simplified and the primary concern is the blocking of the excitation light that is also transmitted through the sample as well as fluorescence that is emitted forwards.
NIE-115 mouse neuroblastoma were cultured in DMEM with 10% fetal bovine serum and 1% antibiotic-antimycotic (Invitrogen, Carlsbad, Calif.) in a 60 mm plastic dish (353002, Becton Dickinson, Franklin Lakes, N.J.). The culture was maintained at 37° C. with 5% CO2 for a period of 48 hours prior to experimentation.
For experimentation the growth medium was replaced with 3 mL of Earle's Balanced Salt Solution (EBSS, Sigma, St. Louis, Mo.) with 20 mM HEPES (Merck Biosciences AG, Laufelfingen, Switzerland). The internal buffer, injected into the patch pipette, was a potassium aspartate (140 mM, Sigma, St. Louis, Mo.), sodium chloride (5 mM, Sigma, St. Louis, Mo.) and HEPES (10 mM) solution at a pH of 7.35. The pH was adjusted with potassium hydroxide and hydrochloric acid.
For characterizing the voltage-sensitivity of SHG and 2PF, we used a slow (˜0.1 Hz) switching protocol as previously described (A. C. Millard, P. J. Campagnola, W. Mohler, A. Lewis, and L. M. Loew, “Second Harmonic Imaging Microscopy,” Meth. Enzymol. 361, 47-69 (2003); Millard, A. C., L. Jin, and L. M. Loew, “Second Harmonic Generation Imaging Microscopy with a High Power Ultrafast Fiber Laser,” Commercial and Biomedical Applications of Ultrafast Lasers. 5714-5716, 92-98 (2005); A. C. Millard, L. Jin, M.-D. Wei, J. P. Wuskell, A. Lewis, and L. M. Loew, “Sensitivity of Second Harmonic Generation from Styryl Dyes to Transmembrane Potential,” Biophys. J. 86, 1169-1176 (2004)) with a 50 mV step. […]

Compound	Absorbance ethanol [1] [nm]	Emission ethanol [1] [nm]	Absorbance MLV ([1]; multilamellar lipid vesicles) [nm]	Emission MLV ([1]; multilamellar lipid vesicles) [nm]	Absorbance water [1] [nm]	polarity of optical signal at 532 nm excitation [2]	polarity of optical signal at 658 nm excitation [2]	dF/F at 658 nm [2] [%]	S/N ratio at 658 nm [2]	average amplitude of AP-associated optical signal, 658 nm excitation ([2]; n=4 cells, N=24 measurements) [% ΔF/F]	average size of AP-associated optical signal, 532 nm excitation ([2]; same 4 cells) [% ΔF/F]	average amplitude ratio of AP-associated signal at two wavelengths (658/532 nm) ([2]; same cell and region of interest)	1PF Abs. Max [1] [nm]	1PF Em. Max [1] [nm]	1PF Change (ΔF/F-100 mv) [3]	SHG Kinetics (exponential time constant) ([4]; time resolution 5 ms) [ms]	SHG kinetics, in words [4]	2PF signal sensitivity detected between 750-850 nm ([4]; kinetics data, FIG. 3c) [%/50 mV]	2PF kinetics (time of signal change) ([4]; time resolution 5 ms) [ms]
CN(C)c1ccc(/C=C/c2ccc(/C=C/c3cc[n+](CCC[N+](C)(C)C)c4ccccc34)o2)cc1 [JPW-3080]	630	896	569	730	554	negative optical signals	positive	5.13 ± 1.20	6.20 ± 2.29	4.13±0.96	0.97±0.26	4.39±1.07							
CCCCN(CCCC)c1ccc2cc(/C=C/C=C/c3cc[n+](CCC[N+](C)(C)C)c4ccccc34)ccc2c1.[Br-].[Br-] [di-4-ANBDQPQ, Di-4-ANBDQPQ, reference compound]	603	818	539		552			1.23 ± 0.66	4.97				539	708	2.0E−001; 618/>715 ΔF/F-100 mv	<5			
CCCCN(CCCC)c1ccc2cc(/C=C/C=C/C=C/c3cc[n+](CCC[N+](C)(C)C)c4ccccc34)ccc2c1.[Br-].[Br-] [di-4-ANHTQPQ, reference compound]													504	655	5.4E−002; 630/>715 ΔF/F-100 mv	34 ± 3			
CCC[N+](CCC)(CCC)CCC[n+]1ccc(/C=C/c2ccc(-c3ccc(N(CC)CC)s3)s2)cc1 [PY-1278]													555	688	7.9E−002; 640/>715 ΔF/F-100 mv		instantaneous		
CCN(CC)c1ccc(-c2ccc(-c3ccc(/C=C/c4cc[n+](CCC[N+](CC)(CC)CC)cc4)s3)s2)s1 [PY-1268]	588		535		508			5.89 ± 3.41	4.44 ± 0.75				535	714	4.2E−002; 640/>715 ΔF/F-100 mv	<5	instantaneously	4.28	≤ 5
CC[N+](CC)(CC)CCC[n+]1ccc(/C=C/c2ccc(-c3ccc(N4CCCC4)s3)s2)cc1 [PY-1274]													551	691	5.0E−002; 620/>715 ΔF/F-100 mv				
CCCCN(CCCC)c1ccc2cc(/C=C/c3cc[n+](CCC[N+](C)(C)C)c4ccccc34)ccc2c1.[Br-].[Br-] [di-4-ANEQPQ, reference compound]													528	670	1.2E−001; 610/>665 ΔF/F-100 mv	76 ± 13			

Source: patent US8129532B2, “Amino(oligo)thiophene dyes, preparation thereof, and optical methods of use” (The University of Connecticut, priority 2007, dated 2012)
